Data on 20 molecules can be found in US9358250B2, “Methods of using SCD1 antagonists” (Genentech, Inc., priority 2011, dated 2016).

Like-named read-outs stand apart in the source and are kept apart here.

The target in series [1] is T1, SCD1 (Homo sapiens, UniProt O00767).
T1 sequence (O00767 1-359): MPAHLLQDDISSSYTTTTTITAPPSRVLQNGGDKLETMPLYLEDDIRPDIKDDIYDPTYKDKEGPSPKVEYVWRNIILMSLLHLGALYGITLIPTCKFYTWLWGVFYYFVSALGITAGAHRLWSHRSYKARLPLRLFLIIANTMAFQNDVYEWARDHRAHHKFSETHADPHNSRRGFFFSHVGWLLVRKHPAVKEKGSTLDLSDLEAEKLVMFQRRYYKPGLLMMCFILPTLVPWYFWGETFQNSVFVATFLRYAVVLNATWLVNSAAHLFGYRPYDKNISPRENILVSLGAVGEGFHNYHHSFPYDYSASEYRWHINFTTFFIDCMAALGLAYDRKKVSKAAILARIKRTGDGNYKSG
Particulars: cited from earlier work.

Series [2] concerns the target T1, SCD1. Particulars: cited from earlier work; for IC50: human SCD1.
The target in another series is T2, rat SCD1 (Rattus norvegicus, UniProt P07308).
T2 sequence (P07308 1-358): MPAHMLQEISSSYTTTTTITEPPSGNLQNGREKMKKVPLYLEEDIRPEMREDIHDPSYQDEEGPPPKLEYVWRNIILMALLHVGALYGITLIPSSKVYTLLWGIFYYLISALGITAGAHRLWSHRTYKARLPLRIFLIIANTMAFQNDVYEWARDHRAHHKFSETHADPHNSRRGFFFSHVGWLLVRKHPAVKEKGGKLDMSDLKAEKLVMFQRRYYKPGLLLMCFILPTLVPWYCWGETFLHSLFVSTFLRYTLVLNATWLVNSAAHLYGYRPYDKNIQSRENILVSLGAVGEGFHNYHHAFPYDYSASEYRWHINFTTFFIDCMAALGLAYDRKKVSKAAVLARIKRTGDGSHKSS
The note with it: cited from earlier work.

The conditions of series [3]: 30 min incubation; cited from earlier work.
The conditions of series [4]: 30 min incubation; cited from earlier work. The source holds these as a separate data set.
A further series deals with T3, Δ6 desaturase (Homo sapiens, UniProt O95864).
T3 sequence (O95864 1-444): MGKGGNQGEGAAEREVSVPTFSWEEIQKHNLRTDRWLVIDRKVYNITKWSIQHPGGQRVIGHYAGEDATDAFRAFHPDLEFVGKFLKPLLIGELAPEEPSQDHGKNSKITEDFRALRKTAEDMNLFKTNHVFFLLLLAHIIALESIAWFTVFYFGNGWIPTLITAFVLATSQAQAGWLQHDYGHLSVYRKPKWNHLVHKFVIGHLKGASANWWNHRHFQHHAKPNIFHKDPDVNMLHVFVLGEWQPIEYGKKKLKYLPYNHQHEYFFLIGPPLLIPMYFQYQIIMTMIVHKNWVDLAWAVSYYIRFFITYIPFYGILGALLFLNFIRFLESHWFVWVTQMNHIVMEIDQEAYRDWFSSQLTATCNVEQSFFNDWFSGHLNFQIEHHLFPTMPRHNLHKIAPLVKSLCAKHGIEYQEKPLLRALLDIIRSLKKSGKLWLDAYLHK
The note with it: cited from earlier work.

The target of another series is Δ5 desaturase (Homo sapiens, UniProt O60427). The note with it: cited from earlier work.
Δ5 desaturase, sequence (O60427 whole entry, stated change not applied): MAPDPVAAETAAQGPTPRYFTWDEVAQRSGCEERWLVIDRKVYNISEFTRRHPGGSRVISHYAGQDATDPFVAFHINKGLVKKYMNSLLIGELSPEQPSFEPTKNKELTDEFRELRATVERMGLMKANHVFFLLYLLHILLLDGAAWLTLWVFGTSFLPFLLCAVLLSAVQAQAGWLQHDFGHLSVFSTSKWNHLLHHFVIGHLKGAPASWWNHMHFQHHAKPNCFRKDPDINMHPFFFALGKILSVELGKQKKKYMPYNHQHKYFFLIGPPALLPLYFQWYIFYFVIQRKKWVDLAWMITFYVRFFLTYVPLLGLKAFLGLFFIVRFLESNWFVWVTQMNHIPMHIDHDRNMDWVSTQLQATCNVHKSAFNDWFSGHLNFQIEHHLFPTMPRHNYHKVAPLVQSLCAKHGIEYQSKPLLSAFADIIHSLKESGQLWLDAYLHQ
Another series concerns HCT-15. Nature of the series: Cell viability, CellTiter-Glo. Format: cell-based, human. Particulars: for cell proliferation, oleate / palmitate supplement: HCT15 cells; for IC50: Homo sapiens, HCT-15, 72 h. Here is the method:
(§1) For SCD1 small molecule inhibitor experiment, cells were treated with indicated concentration of A37062 (Abbott compound 4c) or G02447171.1 (Daichii compound 24) in DMSO or DMSO alone for 48-72 hr. Cell viability was assessed with CellTiter-Glo at 72 hr post treatment (Promega). Activation of caspase 3 and caspase 7 was measured with the Caspase-Glo 3/7 assay kit at 48 hr after treatment (Promega). Values are presented as mean+/−SD of quadruplets. Data are representative of at least three independent experiments.
(§2) To investigate the effect of SCD1 small molecule antagonists on cancer cell lines were treated with serially diluted A37062 for 72 hr, and […] cell viability was measured by CellTiter-Glo (Promega) as described above.
(§3) To investigate the effect of additional SCD1 small molecule antagonists, HT29 and HCT15 were treated with serially diluted small molecule inhibitors RG1-14 and G02447171 (G7171) for 72 hr, and cell viability was measured by CellTiter-Glo (Promega). The specificity and selectivity of the SCD1 small molecule inhibitors was also evaluated.

A further series deals with HT29. Kind of series: Cell viability, CellTiter-Glo. Format: cell-based, human. Particulars: for cell proliferation, oleate / palmitate supplement: HT29 cells; for IC50: Homo sapiens, HT-29, 72 h. The method, then:
as §1, §2, §3

As a reminder, the IC50 is the concentration that inhibits the measured activity by half. Turning to `Cc1nc(-n2ccc(OCc3ccc(F)cc3)cc2=O)sc1C(=O)NCc1ccc(Cl)nc1` [Compound 18], on SCD1 [1], the IC50 is 50 nM.

As to `Cc1nc(-n2ccc3c(O)cccc3c2=O)sc1C(=O)NCc1ccccc1` [Compound 19], the IC50 at SCD1 [1] was 30 nM.

As for `O=C(NCc1cccnc1)c1sc(N2CCN(Cc3ccc(F)cc3)C2=O)nc1C(F)(F)F` [Compound 21], the concentration for half-maximal inhibition (IC50) on SCD1 [1] was 42 nM.

Turning to `O=C(NCc1cccnc1)c1sc(N2CCN(Cc3ccc(F)cc3)C2=O)nc1C(F)(F)F` [Compound 23], the IC50 on SCD1 [1] is 10 nM.

`Cc1nnc(-c2ccc(N3CCC(Oc4cc(F)ccc4Cl)CC3)nn2)o1` [Compound 49]: the IC50 on SCD1 [2] is 37 nM.

As to `COc1ccc(-c2nc3cnc(NCc4ccc(Cl)c(Cl)c4)nc3n(CCNC(C)=O)c2=O)cc1` [Compound 51], the results for the IC50 at SCD1 [2] and on rat SCD1 were 280 nM and 250 nM, respectively.

With `COc1ccc(-c2nc3ccc(NCc4ccc(Cl)c(C(F)(F)F)c4)cc3n(CCNC(C)=O)c2=O)cc1` [Compound 54], the “stability in RLM” value in series [3] was “greater than 50%”. For the same molecule, the “stability in HLM” value in [4] is “greater than 50%”. For the same molecule, the “selectivity against Δ6 desaturase” value at Δ6 desaturase is recorded as “selective”. In addition, the “selectivity against Δ5 desaturase” value at Δ5 desaturase was “selective”.

Consider `O=C1O[C@@H](CO)CN1c1ccc(N2CCC(Oc3ccccc3C(F)(F)F)CC2)nc1` [Compound 67], for which, at SCD1 [2] (at 10 μM), the “inhibition of human SCD1” value is 99%.

`O=c1cc(N2CCN(Cc3cc(Cl)cc(Cl)c3O)CC2)nc[nH]1` [RG1]: the “cell proliferation, oleate / palmitate supplement” value in the series with HCT-15 and in the series with HT29 was “suppress cell proliferation in a fatty acid desaturation-dependent manner” throughout. The IC50 stood at 5.84 nM in the series on HCT-15 (Experiment 1 HCT15, 72 hr); 13.4 nM with HCT-15 (Experiment 2 HCT15, 72 hr); 95.7 nM with HT29 (Experiment 1 HT29, 72 hr); 33.5 nM with HT29 (Experiment 2 HT29, 72 hr).

Consider `O=c1cc(N2CCN(Cc3cc(I)ccc3O)CC2)nc[nH]1` [RG2], for which the IC50 with HCT-15 (Experiment 1 HCT15, 72 hr) was 58.1 nM; in the series on HCT-15 (Experiment 2 HCT15, 72 hr), 122 nM; in the series on HT29 (Experiment 1 HT29, 72 hr) it was 683 nM; in the series with HT29 (Experiment 2 HT29, 72 hr), 398 nM.

As to `O=c1cc(N2CCN(Cc3cc(Cl)cc(Br)c3O)CC2)nc[nH]1` [RG3], the “cell proliferation, oleate / palmitate supplement” value with HCT-15 and in the series with HT29 was “suppress cell proliferation in a fatty acid desaturation-dependent manner” throughout. Besides, the IC50 in the series on HCT-15 (Experiment 1 HCT15, 72 hr) was 2.77 nM; in the series on HCT-15 (Experiment 2 HCT15, 72 hr) it was 8.22 nM; with HT29 (Experiment 1 HT29, 72 hr), 42.6 nM; with HT29 (Experiment 2 HT29, 72 hr), 14.5 nM.

As for `O=c1cc(N2CCN(Cc3cc(F)cc(F)c3O)CC2)nc[nH]1` [RG4], the IC50 turned out to be 289 nM with HCT-15 (Experiment 1 HCT15, 72 hr); 244 nM in the series on HCT-15 (Experiment 2 HCT15, 72 hr); 547 nM in the series with HT29 (Experiment 1 HT29, 72 hr); 346 nM in the series with HT29 (Experiment 2 HT29, 72 hr).

With `O=c1cc(N2CCN(Cc3cccc(Cl)c3O)CC2)nc[nH]1` [RG5], the IC50 with HCT-15 (Experiment 1 HCT15, 72 hr) was determined as 152 nM; with HCT-15 (Experiment 2 HCT15, 72 hr) it was 383 nM; in the series on HT29 (Experiment 1 HT29, 72 hr) it was 277 nM; in the series with HT29 (Experiment 2 HT29, 72 hr) it was 328 nM.

Consider `O=c1cc(N2CCN(Cc3cc(Cl)ccc3O)CC2)nc[nH]1` [RG6], for which the IC50 turned out to be 86.9 nM in the series with HCT-15 (Experiment 1 HCT15, 72 hr); 169 nM in the series with HCT-15 (Experiment 2 HCT15, 72 hr); 330 nM in the series with HT29 (Experiment 1 HT29, 72 hr); 280 nM in the series on HT29 (Experiment 2 HT29, 72 hr).

With `O=c1cc(N2CCN(Cc3cc(Cl)ccc3[N+](=O)[O-])CC2)nc[nH]1` [RG7], the IC50 in the series on HCT-15 (Experiment 1 HCT15, 72 hr) amounted to 177 nM; with HCT-15 (Experiment 2 HCT15, 72 hr), 495 nM; with HT29 (Experiment 1 HT29, 72 hr), 89.7 nM; in the series with HT29 (Experiment 2 HT29, 72 hr), 272 nM.

Consider `O=c1cc(N2CCN(Cc3cc(Br)cc(Br)c3O)CC2)nc[nH]1` [RG8], for which the “cell proliferation, oleate / palmitate supplement” value in the series with HCT-15 and with HT29 was “suppress cell proliferation in a fatty acid desaturation-dependent manner” throughout. The IC50 in the series on HCT-15 (Experiment 1 HCT15, 72 hr) stood at 0.784 nM; in the series on HCT-15 (Experiment 2 HCT15, 72 hr) it was 4.14 nM; in the series on HT29 (Experiment 1 HT29, 72 hr), 18.7 nM; in the series with HT29 (Experiment 2 HT29, 72 hr), 8.13 nM.

Take `Cc1cccc(CN2CCN(c3cc(=O)[nH]cn3)CC2)c1O` [RG11]: the IC50 in the series on HCT-15 (Experiment 1 HCT15, 72 hr) worked out at 148 nM; in the series on HCT-15 (Experiment 2 HCT15, 72 hr), 416 nM; in the series with HT29 (Experiment 1 HT29, 72 hr), 243 nM; in the series on HT29 (Experiment 2 HT29, 72 hr), 266 nM.

Regarding `Cc1cc(Cl)cc(CN2CCN(c3cc(=O)[nH]cn3)CC2)c1O` [RG12], the IC50 with HCT-15 (Experiment 1 HCT15, 72 hr) came to 1 nM; in the series with HCT-15 (Experiment 2 HCT15, 72 hr), 4.33 nM; in the series on HT29 (Experiment 1 HT29, 72 hr), 378 nM; with HT29 (Experiment 2 HT29, 72 hr), 83.5 nM.

For the molecule `Cc1c(Br)cccc1CN1CCN(c2cc(=O)[nH]cn2)CC1` [RG13], the IC50 in the series with HCT-15 (Experiment 1 HCT15, 72 hr) worked out at 288 nM; in the series on HCT-15 (Experiment 2 HCT15, 72 hr), 274 nM; in the series on HT29 (Experiment 1 HT29, 72 hr) it was 129 nM; in the series on HT29 (Experiment 2 HT29, 72 hr) it was 191 nM.

As to `O=c1cc(N2CCN(Cc3cc(OC(F)(F)F)ccc3O)CC2)nc[nH]1` [RG14], the IC50 with HCT-15 (Experiment 1 HCT15, 72 hr) came out at 24.6 nM; in the series with HCT-15 (Experiment 2 HCT15, 72 hr), 53 nM; in the series with HT29 (Experiment 1 HT29, 72 hr), 689 nM; with HT29 (Experiment 2 HT29, 72 hr), 323 nM.
